{"source": "patent US10201507B2", "about": "“Modulators of intracellular chloride concentration for treating fragile X syndrome” (NEUROCHLORE, priority 2012, dated 2019)", "key": {"[1]": {"test_system": "hippocampal CA3 pyramidal neurons", "test": "DFGABA in offspring at P15 after maternal pretreatment", "type": "in vivo, mouse", "protocol": "Mice lacking Fmr1 (referred to as Fmr1^−/−) were bred in our animal facility. […] For all experiments, Fmr1^−/− mice were used with wild-type littermates as a control group. The offspring were used for experiments at E18, P0, P2, P4, P7, P9, P15 and P30. Experiments were carried out on offspring of either sex and in a blind manner at E18 and P0. Hippocampal slices (300-500 μm thick) were prepared using a Microm tissue slicer (International GmbH, Germany) as described previously (Tyzio et al., 2006, 2008). Slices were kept in oxygenated (95% O2/5% CO2) artificial cerebrospinal fluid (ACSF) of the following composition (in mM): […] For recordings, slices were placed into a conventional fully submerged chamber superfused with ACSF at a rate of 2-3 ml/min at room temperature. Patch clamp recordings from visually identified CA3 pyramidal cells in cell-attached configuration were performed using EPC-10 amplifier (HEKA Elektronik Dr. Schulze GmbH, Lambrecht/Pfalz, Germany). Patch pipette solution for recordings of single GABAA channels contained (in mM): NaCl 120, KCl 5, TEA-Cl 20, 4-aminopyridine 5, CaCl2 0.1, MgCl2 10, glucose 10, Hepes-NaOH 10 buffered to pH 7.2-7.3 and GABA 2 μM. Analysis of currents through single channels and current-voltage relationships were performed using Clampfit 9.2 (Axon Instruments, Union City, Calif.). […]"}, "[2]": {"test_system": "FXS mice", "test": "Isolation-induced ultrasonic vocalizations (USVs) at P8 after maternal pretreatment", "type": "in vivo, mouse", "excerpt": "To induce ultrasonic vocalizations, mouse pups were isolated individually from their mother on postnatal day 8, and were placed into an isolation box (23×28×18 cm) located inside a sound attenuating isolation cubicle (54×57×41 cm; Coulbourn Instruments, Allentown, Pa., USA), and evaluated for ultrasonic vocalizations during a three minute test. An ultrasound microphone (Avisoft UltraSoundGate Condenser microphone capsule […] Bioacoustics, Berlin, Germany), placed in the roof of the box, was sensitive to frequencies of 10 to 250 kHz. Vocalizations were recorded using the Avisoft Recorder software (version 4.2) with a sampling rate of 250 kHz in 16 bit format. For acoustical analysis, recordings were transferred to SASLab Pro (version 5.2; Avisoft Bioacoustics) and a fast Fourier transformation was conducted (512 FFT-length, 100% frame, Hamming window and 75% time window overlap). The accuracy of call detection was verified manually by an educated user. A Pearson correlation coefficient was computed to assess the relationship between Automatic and Manual analysis. There was 0.99 correlations between the two variables. A t postnatal day 8, waveform patterns of calls were examined in 45 sonograms from 4 groups of mice (WT, FXS, WT pretreated, FXS pretreated). Each call was identified as one of 10 distinct categories, and only the sonograms where mice emitted at least 50 calls were used for this evaluation. To test whether depolarizing actions of GABA were associated with neuronal excitation, the effect of the GABAA receptor agonist isoguvacine was tested. […] To test whether maternal treatment with bumetanide before delivery switches the action of GABA from excitatory to inhibitory in offsprings at P15, pregnant females were treated orally 1 day before delivery with bumetanide (2-2.5 mg/kg in drinking water) and juvenile offspring neurons recorded at P15. […] Therefore, excitatory actions of GABA during delivery produce long term deleterious effects on electrophysiological parameters of FXS juvenile neurons. In FXS mice, GABAergic inputs are excitatory and contribute to hyperexcitability of the network. Bumetanide decreases [Cl^-]i and consequently reduces contribution of excitatory GABAergic inputs in the overall network activity. Isolation and Ultrasonic vocalizations were induced in mice to determine behavioral effect of Bumetanide in a model of FXS. An increased probability of emitting downward and chevron calls in FXS pups than age matched WT (P8). This was rescued by maternal bumetanide pretreatment (FIG. 4, table 3). Therefore, elevated [Cl^-]i levels during delivery are involved in the pathogenesis of Fragile X syndrome."}, "[3]": {"test_system": "child with Fragile X syndrome", "test": "Clinical case study, efficacy scales (ABC, GRAM, CGI)", "type": "in vivo, human", "conditions": "after 90 days, 0.5 mg twice a day", "protocol": "This example is a case reports presenting the treatment by bumetanide of a child with Fragile X syndrome. Starting from the 5 Jan. 2011, the child received bumetanide twice a day (0.5 mg morning and 0.5 mg evening) during three months. Several biological tests were made at baseline (D0) and then after 7 days (D7), one month (M1), two months (M2) and three months (M3) of treatment. They checked orthostatic hypotension, allergy, cramps, asthenia, diarrhea, myalgia, arthralgia, vertigo and nausea. Blood tests included γ-glutamyltransferase, transaminases, alkaline phosphatases, glycemia, uric acid and creatine, in addition to blood Na^+ and K^+. Efficacy of the treatment was measured at baseline (D0) and after three months of treatment (M3) using the GRAM scale ([…] Regulation Adaptation Modulation) for analyzing the dysregulation of the activity in a child; the ABC scale (Aberrant Behavior Checklist) for assessing problem behaviors of children and adults with mental retardation; and the CGI scale (Clinical Global Impression) for assessing the clinical amelioration in a patient following a therapeutic treatment."}, "[4]": {"test_system": "child with Fragile X syndrome", "test": "Clinical case study, side effects, blood tests, blood ions and weight", "type": "in vivo, human", "protocol": "This example is a case reports presenting the treatment by bumetanide of a child with Fragile X syndrome.\nStarting from the 5 Jan. 2011, the child received bumetanide twice a day (0.5 mg morning and 0.5 mg evening) during three months. Several biological tests were made at baseline (D0) and then after 7 days (D7), one month (M1), two months (M2) and three months (M3) of treatment. They checked orthostatic hypotension, allergy, cramps, asthenia, diarrhea, myalgia, arthralgia, vertigo and nausea. Blood tests included γ-glutamyltransferase, transaminases, alkaline phosphatases, glycemia, uric acid and creatine, in addition to blood Na^+ and K^+."}}}
{"smiles": "CCCCNc1cc(C(=O)O)cc(S(N)(=O)=O)c1Oc1ccccc1", "note": "[bumetanide]", "values": [{"measurement": "average DFGABA", "setting": "[1]; P15 FXS mice, maternal pretreatment orally 1 day before delivery, 2-2.5 mg/kg in drinking water", "value": "1.0±1.1", "unit": "mV"}, {"measurement": "Effect on DFGABA in offsprings (in words)", "setting": "[1]; P15 FXS, maternal pretreatment", "value": "restored control DFGABA values"}, {"measurement": "Chevron calls, isolation-induced USVs", "setting": "[2]; P8 FXS mice", "value": "0.6 ± 0.1 (n = 13)"}, {"measurement": "Downward calls, isolation-induced USVs", "setting": "[2]; P8 FXS mice", "value": "10.2 ± 1.4 (n = 13)"}, {"measurement": "Increased probability of downward and chevron calls (in words)", "setting": "[2]; P8 FXS pups", "value": "rescued"}, {"measurement": "Chevron calls, isolation-induced USVs", "setting": "[2]; P8 WT mice", "value": "0.5 ± 0.3 (n = 9)"}, {"measurement": "Downward calls, isolation-induced USVs", "setting": "[2]; P8 WT mice", "value": "13.5 ± 2.8 (n = 9)"}, {"measurement": "CGI result", "setting": "[3]", "value": 2}, {"measurement": "ABC results (Aberrant Behavior Checklist)", "setting": "[3]; baseline 41", "value": 27}, {"measurement": "GRAM results", "setting": "[3]; baseline 56", "value": 31}, {"measurement": "Weight", "setting": "[4]; 1 month (M1) of treatment", "value": 25.1, "unit": "kg"}, {"measurement": "blood K^+", "setting": "[4]; 1 month (M1) of treatment", "value": 4.3, "unit": "mmol/L"}, {"measurement": "blood Na^+", "setting": "[4]; 1 month (M1) of treatment", "value": 139, "unit": "mmol/L"}, {"measurement": "Weight", "setting": "[4]; 2 months (M2) of treatment", "value": 25.4, "unit": "kg"}, {"measurement": "blood K^+", "setting": "[4]; 2 months (M2) of treatment", "value": 3.5, "unit": "mmol/L"}, {"measurement": "blood Na^+", "setting": "[4]; 2 months (M2) of treatment", "value": 140, "unit": "mmol/L"}, {"measurement": "Weight", "setting": "[4]; 3 months (M3) of treatment", "value": 25.7, "unit": "kg"}, {"measurement": "blood K^+", "setting": "[4]; 3 months (M3) of treatment", "value": 3.6, "unit": "mmol/L"}, {"measurement": "blood Na^+", "setting": "[4]; 3 months (M3) of treatment", "value": 139, "unit": "mmol/L"}, {"measurement": "Natremia (in words)", "setting": "[4]; 3 months of treatment", "value": "unaltered"}, {"measurement": "body weight (in words)", "setting": "[4]; 3 months of treatment", "value": "not altered"}, {"measurement": "blood K^+ (in words)", "setting": "[4]; 3 months of treatment, inferior limit 3.5 mmol/1", "value": "reduced to a value close to the inferior limit"}, {"measurement": "Weight", "setting": "[4]; 7 days (D7) of treatment", "value": 25.2, "unit": "kg"}, {"measurement": "blood K^+", "setting": "[4]; 7 days (D7) of treatment", "value": 3.6, "unit": "mmol/L"}, {"measurement": "blood Na^+", "setting": "[4]; 7 days (D7) of treatment", "value": 143, "unit": "mmol/L"}, {"measurement": "side effect in clinical examination", "setting": "[4]; orthostatic hypotension, allergy, cramps, asthenia, diarrhea, myalgia, arthralgia, vertigo, nausea, 3 months", "value": "no side effect"}, {"measurement": "Conventional blood tests", "setting": "[4]; γ-glutamyltransferase, transaminases, alkaline phosphatases, glycemia, uric acid, creatine, 3 months", "value": "unaffected"}]}
